Data taken from patent publication US7781580B2, “Stilbene derivatives as new cancer therapeutic agents” (Virginia Commonwealth University, priority 2007, dated 2010).
pIC50: −log10 of the molar value. Counter-ions that a name gives are not always drawn. Like-named read-outs stand apart in the source and are kept apart here.

Legend:
[1] = test system: SNU423 hepatocellular carcinoma cells; assay: Alamar Blue cell growth inhibition, SNU423; format: cell-based
Experimental: Cell growth was measured by Alamar Blue™ staining and the OD absorbance at 570 and 600 nm was determined by a microplate reader. The percentage of cell growth inhibition was calculated and compared with the control cells that were treated with 0.1% DMSO, the vehicle for the stilbene compounds.
(§1) Various cancer cell lines were grown in 96-well plates for drug sensitivity assays. Once cells achieved 50% confluence, the incubation media was changed to the same cell growth media with different concentrations of the tested compounds or vehicle alone. Cells were then incubated for 48 hours before the cell growth inhibition study. To determine the degree of cell growth inhibition, 1/10 volume of Alamar Blue™ solution was added to each well and optical density (OD) at 570 and 600 nm was determined. The percentage of growth inhibition was calculated according to the manufacturer's formula as follows: The percentage of growth is [(117216×A570)−(80586×A600)]/[(117216×A^o570)−(80586×A^o600)]×100. In this formula, A570 is the absorbance of the treated samples at 570 nm; A600 is the absorbance of the treated samples at 600 nm; A^o570 is the absorbance of the […] samples at 570 nm; and A^o600 is the absorbance of the untreated samples at 600 nm. The two constants, 117216 and 80586, are the extinction coefficients of Alamar Blue™ at 570 and 600 nm respectively. Each concentration was repeated in triplicate to minimize the error.
(§2) We first tested the cytotoxic effect of various stilbene derivatives for their in vitro efficacy of suppressing tumor cell proliferation. Cells were first plated in 96-well plates at 50% confluence and treated with 0, 0.01, 0.03, 0.1, 0.3, 1.0, 3.0, 10 μM concentrations of stilbene derivatives for 48 hours in triplicate. Alamar Blue™ reagent was added into each well at 1/10 volume and incubated for 2 hours before quantification of the absorbance at 570 and 600 nm.

[2] = test system: SKOV3 ovarian cancer cells; assay: Alamar Blue cell growth inhibition, SKOV3; format: cell-based; conditions: for effective / active concentration: SKOV3, 48 hours
Experimental: Cells were incubated with various concentrations of the compounds for 48 hours. Cell growth was measured by Alamar Blue™ staining and the percentage of cell growth inhibition was calculated and compared with the control cells that were treated with 0.1% DMSO, the vehicle for the stilbene compounds.
as §1

[3] = test system: MDA-MB231 breast cancer cells; assay: Alamar Blue cell growth inhibition, MDA-MB231; format: cell-based; conditions: Homo sapiens, MDA-MB-231; MDA-MB231
Experimental: Cell growth was measured by Alamar Blue™ staining and the percentage of cell growth inhibition was calculated and compared with control cells that were treated with 0.1% DMSO, the vehicles for the stilbene compounds.
as §1, §2

[4] = test system: MiaPaCa2 pancreatic cancer cells; assay: Alamar Blue cell growth inhibition, MiaPaCa2; format: cell-based; conditions: Homo sapiens, MIA PaCa-2; MiaPaCa2
Experimental: as §1, §2

[5] = in vivo; cited from earlier work
[6] = test system: UCI101 ovarian cancer cells; assay: Western blot of signal transduction events, UCI101; format: cell-based; conditions: for phosphorylation of Chk1: 36 hours
Experimental: All these agents are microtubule interfering agents but with different binding sites. Cells were harvested at 0, 4, 8, 16 and 36 hours after drug treatment for Western blot analysis. […] Phosphorylation of both Cdc25C and Cdc2 disappeared after 16 hours and slightly recovered at 36 hours. […] Akt phosphorylation decreased after 16 hours of treatment.
In order to understand the mechanism of resistance of stilbenes, various signal transduction pathways were investigated to examine how cells respond to stilbene treatment. UCI101 ovarian cancer cells were treated with stilbenes 4a, 4c or paclitaxel (Taxol) at 0.1 μM for 0, 4, 8, 16 and 36 hours. Cells were harvested for Western blotting. Changes in the kinases involved in cell cycle progression from G2-M transition were first determined in Cdc2, Cdc25c, and mitotic spindle check point regulator BubR1. […] 36 hours after treatment, rephosphorylation of Cdc2 was observed. […] The higher molecular weight isomer of Cdc25c, the mitotic form, increased at 16 and 36 hours. […] A similar study was then performed with other microtubule interfering agents such as combretastatin A4, 13a and vincristine for comparison. A similar trend was observed among these three microtubule interfering agents (FIG. 18).

Tubulin (>99% pure) = assay: tubulin polymerization assay (OD 340 nm); format: biochemical; conditions: OD340 nm; nocodazole and paclitaxel 10 μM
Experimental: FIG. 3a-d. Stilbenes inhibit tubulin polymerization. (a) Effect of stilbene 4a. Pure tubulin was incubated with various concentrations of stilbene 4a, 10 μM nocodazole, and 10 μM paclitaxel in the polymerization buffer. The OD at 340 nm was monitored every minute by SpectraMAX 250 and plotted against time. (b) Effect of stilbene 4c. (c) Comparison of same concentrations of stilbenes 4a, 4a trans, 4c and 4c trans with control. […] Tubulin was incubated with [^3H]-colchicine and various concentrations of different stilbenes for 20 min. Tubulin was then separated from the unbound [^3H]-colchicine by Microcon-30 and washed three times with PBS. The radioactivity of the tubulin was counted. […] All experiments were done in triplicates.
The tubulin polymerization assay kit was purchased from Cytoskeleton (Denver, Colo.). Tubulin (>99% pure) was mixed with general tubulin buffer (GTB, 80 mM PIPES pH 6.9, 2 mM MgCl2, 0.5 mM EGTA, and 1 mM GTP) in a 96-well plate at 37° C. Absorbance at 340 nm was measured every 1 min for 60 min by SpectraMAX 250 (Molecular Devices, Sunnyville, Calif.). Analysis of the results was performed by SoftMAX Pro version 1.2.0 from the same company.

HL60 cells = conditions: cited from earlier work; for pIC50: read-out: IC50, induction of HL60 apoptosis
[7] = acute toxicity in dose escalating study; format: in vivo, mice
Experimental: Acute toxicity in dose escalating study: We investigated the efficacy of stilbene 4a in vivo using mouse xenograft model. First we determined the maximal tolerated dose of stilbene 4a since it has a higher potency in vitro. […] Subsequently mice fully recovered 30 min after injection.

MDA-MB231 cells = assay: immunofluorescent staining of tubulin, MDA-MB231; format: cell-based; conditions: CA4 10 nM, stilbene 4a 100 nM, vincristine 100 nM, 5b 3 μM; 16 hours
Source text: Nuclei were stained with 4′,6-diamidino-2-phenylindole (DAPI). Control cells show the reticular pattern of the microtubule network.

[8] = test system: UCI101 ovarian cancer cells; assay: Alamar Blue cell growth inhibition, UCI101; format: cell-based; conditions: UCI101, 48 hours
Experimental: Cell growth was measured by AlamarBlue™ staining and the percentage of cell growth inhibition was calculated and compared with the control cells that were treated with 0.1% DMSO, the vehicles for the stilbene compounds.
Cells were treated with the tested drug for 2 days before analysis of cell growth by Alamar Blue™ staining. Cells treated with 0.1% DMSO were used as control and set as 100%.
(a) In vitro sensitivity of UCI101 cells toward three potential stilbene prodrugs, 5a-c, was tested in 96-well plates using Alamar Blue™ assays to determine cell growth inhibition. […] (b) 5b induces cell cycle change and apoptosis in UCI101 cells. Cells were incubated with 5b at 1, 3, 10 μM for 16 hours followed by PI staining and flow cytometry analysis. A subG0/1 population, representing apoptotic cells, appeared along with a decrease of the G1/G2 ratio after cells were treated with 3 μM 5b. Higher concentration (10 μM) of 5b completely killed cells, as was the case with stilbene 4a at […]. (c) Cells treated with stilbene 4a and 5b were stained with phospho-histone 3B, a mitotic marker. The positive signals of phospho-histone 3B were shown in green and nuclei were stained with DAPI in blue. […] (d) In vivo efficacy of 5b compared with stilbene 4a. Nude mice were injected with UCI101 ovarian cancer cells and treated with 7 doses of 5b,c or stilbene 4a every 2-3 days. Tumor volume was calculated and plotted against days.
as §1, §2

## COc1cc(/C=C\c2ccc(OC)c(N)c2)cc(OCCO)c1 [10a, (Z)-2-{3-[2-(3-Amino-4-methoxy-phenyl)-vinyl]-5-methoxy-phenoxy}-ethanol, hydrochloride]
[1]; Homo sapiens, SNU-423, 48 h, read-out: IC50 (50% growth inhibition), SNU423, 48 hours
  pIC50: ≥ 6.52
[1]; read-out: IC50 (50% growth inhibition), SNU423, 48 hours, hydrochloride
  pIC50: 6.52
[2]; SKOV3
  activity: also effective
[2]
  effective / active concentration: 0.1 µM
[3]
  pIC50: 7.10
[4]
  pIC50: 6.52

## COc1cc2c(c(OC)c1OC)-c1ccc(OP(=O)(O)O)cc1[C@@H](NC(C)=O)CC2 [ZD6126]
[5]
  toxicity in phase I clinical trials: cardiac toxicity (such as decreasing left ventricular ejection fraction) and dose limiting toxicity were observed

## CC(=O)O[C@H]1C(=O)[C@@]2(C)[C@H]([C@H](OC(=O)c3ccccc3)[C@]3(O)C[C@H](OC(=O)[C@H](O)[C@@H](NC(=O)c4ccccc4)c4ccccc4)C(C)=C1C3(C)C)[C@]1(OC(C)=O)CO[C@@H]1C[C@@H]2O [paclitaxel, reference compound]
[6]; 0.1 μM, 16 hours
  phosphorylation of Cdc2 at Tyr15: decreased dramatically
[6]
  phosphorylation of Chk1: do not cause more phosphorylation of Chk1
Tubulin (>99% pure)
  effect on tubulin polymerization: enhanced

## COc1cc(/C=C\c2ccc(OC)c(N)c2)cc(OC)c1 [stilbene 5c, cis-3,4′,5-trimethoxy-3′-aminostilbene]
HL60 cells; Roberti et al.
  cytotoxicity under overexpression of MDR gene: not affected by overexpression of multiple-drug resistant (MDR) gene
  pIC50: 7.52
[7]; 6 or 33 mg/kg intravenously
  acute toxicity at 6 or 33 mg/kg: did not cause any acute toxicity
[7]; 72 and 97 mg/kg intravenously
  acute toxicity at 72 and 97 mg/kg: transient weakness as shown by dragging feet and sluggish movement
  time to full recovery after injection: 30 min

## COc1cc(/C=C\c2ccc(OC)c(O)c2)cc(OC)c1 [stilbene 6c, cis-3,4′,5-trimethoxy-3′-hydroxystilbene]
HL60 cells
  cytotoxicity under overexpression of MDR gene: not affected by overexpression of multiple-drug resistant (MDR) gene
HL60 cells; Roberti et al.
  pIC50: 7.52

## CC[C@]1(O)C[C@H]2CN(CCc3c([nH]c4ccccc34)[C@@](C(=O)OC)(c3cc4c(cc3OC)N(C=O)[C@H]3[C@@](O)(C(=O)OC)[C@H](OC(C)=O)[C@]5(CC)C=CCN6CC[C@]43[C@@H]65)C2)C1 [vincristine, reference compound]
[1]; SNU423
  relative potency: equivalent
[6]; 0.1 μM
  phosphorylation of Stat3: more pronounced
[6]
  phosphorylation of Chk1: do not cause more phosphorylation of Chk1
[2]; Homo sapiens, SK-OV-3, SKOV, read-out: IC50
  pIC50: 7.00 to 7.30
[2]
  effective / active concentration: 0.1 µM
MDA-MB231 cells
  microtubule pattern: fine granular pattern without formation of microtubules
[8]
  relative potency / activity: about equal in their potency
